Experimental data from patent publication US10822311B2, “Pyrimidines and variants thereof, and uses therefor” (Afferent Pharmaceuticals Inc., priority 2016, dated 2020).
Like-named read-outs stand apart in the source and are kept apart here. One block for each compound: values may come before it.

Tests used:
P2X3 [1] = assay: Mean pIC50s from Carter et al, P2X3; format: cell-based
P2X3 [2] = conditions: Table 3A, oxygen-linked; from Carter et al; cited from earlier work
P2X3 [3] = conditions: Table 3B, iodo; from Jahangir et al; cited from earlier work
P2X3 [4] = assay: Mean pIC50s from Jahangir et al, P2X3; format: cell-based; conditions: Table 3B, iodo; ratio from the Jahangir et al pIC50s
P2X2/3 = target: T1, P2X2/3 (Homo sapiens, UniProt P56373+Q9UBL9); conditions: Table 3B, iodo; from Jahangir et al; cited from earlier work
T1 sequence (P56373 1-397): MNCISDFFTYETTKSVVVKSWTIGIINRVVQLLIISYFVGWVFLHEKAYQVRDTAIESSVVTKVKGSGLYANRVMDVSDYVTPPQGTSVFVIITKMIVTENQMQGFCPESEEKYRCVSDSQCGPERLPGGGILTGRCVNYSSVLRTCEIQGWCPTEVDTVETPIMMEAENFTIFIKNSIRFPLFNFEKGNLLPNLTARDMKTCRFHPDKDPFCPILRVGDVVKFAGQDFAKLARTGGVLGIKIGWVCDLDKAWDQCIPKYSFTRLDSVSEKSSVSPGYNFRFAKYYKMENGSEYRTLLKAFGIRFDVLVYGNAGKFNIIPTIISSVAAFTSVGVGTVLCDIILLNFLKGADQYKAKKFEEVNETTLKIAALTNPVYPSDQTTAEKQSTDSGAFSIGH
T1 sequence (Q9UBL9 1-471): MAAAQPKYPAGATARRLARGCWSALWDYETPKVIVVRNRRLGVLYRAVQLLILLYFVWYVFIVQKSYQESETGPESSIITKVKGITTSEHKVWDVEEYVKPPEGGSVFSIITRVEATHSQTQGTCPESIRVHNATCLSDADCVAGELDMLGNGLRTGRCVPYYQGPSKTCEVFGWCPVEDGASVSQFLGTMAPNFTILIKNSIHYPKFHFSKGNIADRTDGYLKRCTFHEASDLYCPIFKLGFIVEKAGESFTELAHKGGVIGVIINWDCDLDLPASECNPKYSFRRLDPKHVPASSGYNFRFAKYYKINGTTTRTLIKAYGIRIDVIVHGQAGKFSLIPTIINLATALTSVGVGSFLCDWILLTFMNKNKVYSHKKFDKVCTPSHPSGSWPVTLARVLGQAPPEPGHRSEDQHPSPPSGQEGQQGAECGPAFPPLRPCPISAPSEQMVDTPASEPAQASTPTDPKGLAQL

[5] = target: T2, human P2X2/3 (heteromeric P2X2/3 channels) (Homo sapiens, UniProt P56373+Q9UBL9); assay: FlexStation calcium fluorescence assay, heteromeric P2X2/3 channels in 1321N1 cells; format: cell-based; conditions: for IC50: 1321N1 cells, hP2X2/3, agonist 3 μM ATP, read-out: Average pIC50 P2X2/3 (converted)
T2 construct: expressed in transfected cells; host or cells: 1321N1 human astrocytoma cells (1321N1-hP2X2/3)
T2 sequence (P56373 1-397): T1 sequence (P56373 1-397)
T2 sequence (Q9UBL9 1-471): T1 sequence (Q9UBL9 1-471)
Procedure: (§1) 1321N1 human astrocytoma and HEK293 human embryonic kidney cells were stably transfected with human P2X2 and P2X3 receptor subunits to form heteromeric P2X2/3 channels and passaged in flasks. Additionally, HEK293 cells were stably transfected with human P2X3 receptor subunits to form homomeric P2X3 channels.
(§2) Approximately 24 hours before the FlexStation calcium fluorescence experiment, cells were released from their flasks, centrifuged and re-suspended in nutrient medium. The cells were aliquoted into black-wall, clear-bottom 96 well plates at a density of 25,000 cells per well and incubated overnight in a humidified, CO2-enriched (5%) atmosphere at 37° C.
(§3) On the day of the experiment, cells were washed with assay buffer (calcium- and magnesium-free Hank's balanced salt solution, 20 mM HEPES, 2 mM CaCl2; AB) and loaded with 4 μM Fluo-4 (P2X2/3) or Calcium 6 (Molecular Devices, according to manufacturer's instructions; P2X3) calcium-sensitive fluorescent dye in 100 μL AB.
(§4) After 1 hour of dye loading at 37° C., 1321N1-hP2X2/3 cells were washed two times with AB and test compound or vehicle added to each well in a total volume of 150 μL AB. HEK-hP2X3 cells were not washed because the Calcium 6 dye kit includes an extracellular dye that quenches unabsorbed Calcium 6 dye; test compound or vehicle were added directly to the assay plates to achieve the appropriate concentration of test compound in a total volume of 150 μL AB.
(§5) After 20 minutes incubation at room temperature and protected from light, the assay plates were loaded into the FlexStation microplate reader and baseline fluorescence measured with an excitation wavelength of 485 nm and emission wavelength readings centered at 525 nm (515 nm cut off).
(§6) The agonist was dispensed by the FlexStation during fluorescence measurement to construct agonist activation and antagonist inhibition curves. The final agonist concentration for inhibition was 1 μM α,β-meATP for P2X3 and 3 μM ATP for P2X2/3. Peak fluorescence was measured and curves generated using a four parameter nonlinear regression equation.

[6] = target: T3, human P2X3 receptor (homomeric P2X3 channels) (Homo sapiens, UniProt P56373); assay: FlexStation calcium fluorescence assay, homomeric P2X3 channels in HEK293 cells; format: cell-based; conditions: for IC50: HEK293 cells, hP2X3, agonist 1 μM α,β-meATP, read-out: Average pIC50 P2X3 (converted); for Selectivity P2X3/P2X2/3: Ratio=10^(P2X3pIC50−P2X2/3pIC50)
T3 construct: expressed in transfected cells; host or cells: HEK293 human embryonic kidney cells (HEK-hP2X3)
T3 sequence (P56373 1-397): T1 sequence (P56373 1-397)
Procedure: as §1, §2, §3, §4, §5, §6

[7] = highest concentration tested is 10 μM

- IC50 [5, 7]: > 10000 nM
- IC50 [6]: 1580 nM
- Selectivity P2X3/P2X2/3 [6]: >5.6
Compound: COc1cc(Oc2cnc(N)nc2Nc2ccccn2)c(C(C)C)cc1OC [Compound 43]

- IC50 [5, 7]: 1580 nM
- P2X2/3 mean pIC50, R = OMe ([5]; Table 3B, hP2X2/3, 1321N1 (astrocytoma) cells, Table 2): 5.8
- IC50 [6]: 200 nM
- Selectivity P2X3/P2X2/3 [6]: 7.9
- Selectivity, R = OMe ([6]; Table 3B, P2X3 vs P2X2/3 potency ratio): 7.9
- P2X3 mean pIC50, R = OMe ([6]; Table 3B, hP2X3, HEK293 cells, Table 2): 6.7
Compound: COc1cc(Oc2cnc(NCCO)nc2N)c(C(C)C)cc1OC [Compound 22]

- IC50 [5, 7]: > 10000 nM
- IC50 [6]: 1000 nM
- Selectivity P2X3/P2X2/3 [6]: >10
Compound: COCCNc1nc(N)ncc1Oc1cc(OC)c(OC)cc1C(C)C [Compound 36]

- IC50 [5, 7]: > 10000 nM
- P2X2/3 mean pIC50, X = S ([5]; Table 3A, sulfur-linked, hP2X2/3, 1321N1 (astrocytoma) cells, highest concentration tested is 10 μM): <5
- IC50 [6]: 158 nM
- P2X3 mean pIC50, X = S ([6]; Table 3A, sulfur-linked, hP2X3, HEK293 cells): 6.8
Compound: COc1cc(C(C)C)c(Sc2cnc(N)nc2N)cc1Cl [Compound 9]

- IC50 [5, 7]: > 10000 nM
- IC50 [6]: 1260 nM
Compound: COc1ccc(Oc2cnc(N)nc2N)c(C(C)C)n1 [Compound 14]

- IC50 [5, 7]: > 10000 nM
- IC50 [6]: 1000 nM
Compound: COc1nc(C(C)C)c(Oc2cnc(N)nc2N)cc1C#N [Compound 17]

- IC50 [5, 7]: > 10000 nM
- IC50 [6]: 3160 nM
- Selectivity P2X3/P2X2/3 [6]: 3.5
Compound: COc1cc(Oc2cnc(N)nc2Nc2cccnn2)c(C(C)C)cc1OC [Compound 45]

Further lines, the compound ahead of its results:

Compound: COc1cc(C(C)C)c(Oc2cnc(N)nc2N)cc1Cl [Row D, X = O]
- Selectivity, X = O (P2X3 [1]; Table 3A, oxygen-linked, ratio from the Carter et al pIC50s): 4
- P2X3 mean pIC50, X = O (P2X3 [2]): 7.6

Compound: COc1cc(C(C)C)c(Oc2cnc(N)nc2NC(CO)CO)cc1I [Row C, R = I]
- P2X3 mean pIC50, R = I (P2X3 [3]): 8.7
- Selectivity, R = I (P2X3 [4]): 2.5
- P2X2/3 mean pIC50, R = I (P2X2/3): 8.3

Compound: COc1cc(C(C)C)c(Oc2cnc(N)nc2NCCO)cc1I [Row A, R = I]
- P2X3 mean pIC50, R = I (P2X3 [3]): 8.0
- Selectivity, R = I (P2X3 [4]): 1.6
- P2X2/3 mean pIC50, R = I (P2X2/3): 7.8

Compound: COc1cc(C(C)C)c(Oc2cnc(N)nc2N)cc1I [Row B, X = O]
- Selectivity, X = O (P2X3 [1]): 8
- P2X3 mean pIC50, X = O (P2X3 [2]): 8.0

Compound: COc1cc(C(C)C)c(Oc2cnc(N)nc2NCC(O)CO)cc1I (centres unmarked) [Row B, R = I]
- P2X3 mean pIC50, R = I (P2X3 [3]): 8.1
- Selectivity, R = I (P2X3 [4]): 4.0
- P2X2/3 mean pIC50, R = I (P2X2/3): 7.5

Compound: COc1cc(C(C)C)c(Oc2cnc(N)nc2N)cc1S(C)(=O)=O [Row C, X = O]
- Selectivity, X = O (P2X3 [1]): 10
- P2X3 mean pIC50, X = O (P2X3 [2]): 7.0

Compound: COc1cc(Oc2cnc(N)nc2N)c(C(C)C)cc1OC [Row A, X = O]
- P2X3 mean pIC50, X = O (P2X3 [2]): 7.6

Compound: COc1cc(C(C)C)c(Sc2cnc(N)nc2N)cc1-c1nnn[nH]1 [Compound 11]
- IC50 [5, 7]: > 10000 nM
- IC50 [6]: 158 nM
